Values of other authors, collected in patent EP3372227A1, “TABLET FORMULATION OF ADEFOVIR DIPIVOXIL” (MH10 Spolka z ograniczona odpowiedzialnoscia, priority 2017, dated 2018).

Conditions: rat, in vivo

Question: With `Nc1ncnc2c1ncn2CCOCP(=O)(O)O` [adefovir] as the molecule, how does the relative oral bioavailability read?
Answer: Its relative oral bioavailability is 7.8.
